Measurements from ChEMBL document CHEMBL1153475, “Novel indoline-based acyl-CoA: cholesterol acyltransferase inhibitor: Effects of introducing a methanesulfonamide group on physicochemical properties and biological activities” (Bioorg Med Chem, 2009).

Columns and labels:
[1] = biological target: T1, Acyl-CoA:cholesterol acyltransferase (Oryctolagus cuniculus, UniProt Q95214); experiment: Inhibition of ACAT in Japanese White rabbit liver microsomes; set-up: species or system Microsome
T1 sequence (Q95214 whole entry): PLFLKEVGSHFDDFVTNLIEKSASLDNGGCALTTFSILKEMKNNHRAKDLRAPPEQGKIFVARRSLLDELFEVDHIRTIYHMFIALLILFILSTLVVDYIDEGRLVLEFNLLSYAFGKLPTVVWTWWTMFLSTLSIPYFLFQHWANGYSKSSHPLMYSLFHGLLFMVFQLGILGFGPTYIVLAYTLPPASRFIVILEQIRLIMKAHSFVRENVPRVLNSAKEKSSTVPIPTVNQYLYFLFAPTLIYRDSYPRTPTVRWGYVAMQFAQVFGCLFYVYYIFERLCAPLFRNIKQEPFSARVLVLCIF

THP-1 [2] = experiment: Anti-foam cell formation activity in human THP1 cells assessed as inhibition of esterified cholesterol accumulation after 24 hrs in presence of Japanese white rabbit high-cholesterol serum; type: functional, cell-based; conditions: THP-1, 24 h
[3] = Protein binding in rat plasma assessed as total and protein free fraction concentration at 10 ug/ML after 150 mins by ultracentrifugation method; type: ADME, cell-free; conditions: read-out: PPB (converted)
THP-1 [4] = experiment: Anti-foam cell formation activity in human THP1 cells assessed as inhibition of esterified cholesterol accumulation after 24 hrs in presence of albumin; type: functional
Mus musculus = experiment: Inhibition of hepatic cholesterol secretion in ICR mouse at 10 mg/kg, po after 3 hrs by enzymatic method; type: functional
[5] = Cmax in Sprague-Dawley rat at 10 mg/kg, po; type: ADME, organism-based; set-up: dose 10 mg/kg, route oral; conditions: in vivo
[6] = Tmax in Sprague-Dawley rat at 10 mg/kg, po; type: ADME, organism-based; set-up: dose 10 mg/kg, route oral; conditions: in vivo
[7] = Half life in Sprague-Dawley rat at 10 mg/kg, po; type: ADME, organism-based; set-up: dose 10 mg/kg, route oral; conditions: in vivo
[8] = AUC (0 to 24 hrs) in Sprague-Dawley rat at 10 mg/kg, po; type: ADME, organism-based; set-up: time < 24 hr, dose 10 mg/kg, route oral; conditions: plasma

Row | SMILES | IC50 [1] [nM] | IC50 (THP-1 [2]) [nM] | also measured
1 | CCCCN1CCc2c(C)cc(C)c(NC(=O)C(C)(C)C)c21 | 220 | 1100 | –
2 | Cc1c2c(c(NC(=O)C(C)(C)C)c(C)c1NS(C)(=O)=O)N(C)CC2 | 8800 | 7500 | –
3 | CCCCCCCCN1CCc2c(C)c(CC(=O)O)c(C)c(NC(=O)C(C)(C)C)c21 [PACTIMIBE] | – | – | fraction unbound at […], 10 ug/mL [3]: 0.021; fold change (FC) (THP-1 [4]): 10; inhibition in vivo at 10 mg/kg (Mus musculus): 28%; Cmax [5]: 800 ng/mL; Tmax [6]: 0.67 h; half-life [7]: 7.37 h; AUC(0-t) at 24 h [8]: 2800 ng·h/mL
4 | CCCCCCCCCCN1CCc2c(C)c(CC(=O)O)c(C)c(NC(=O)C(C)(C)C)c21 | 910 | 980 | –
5 | CCCCN1CCc2c(C)c(NS(C)(=O)=O)c(C)c(NC(=O)C(C)(C)CC)c21 | 53 | 45 | –
6 | COCCN1CCc2c(C)c(NS(C)(=O)=O)c(C)c(NC(=O)C(C)(C)C)c21 | 270 | 1600 | –
7 | CCN1CCc2c(C)c(NS(C)(=O)=O)c(C)c(NC(=O)C(C)(C)C)c21 | – | – | Cmax [5]: 2900 ng/mL; Tmax [6]: 0.5 h; half-life [7]: 2.59 h; AUC(0-t) at 24 h [8]: 10800 ng·h/mL
8 | CCCCCCCCN1CCc2c(C)cc(C)c(NC(=O)C(C)(C)C)c21 | – | 290 | –
9 | CCCN1CCCc2c(C)c(NS(C)(=O)=O)c(C)c(NC(=O)C(C)(C)C)c21 | 130 | 290 | –
10 | CCOCCN1CCc2c(C)c(NS(C)(=O)=O)c(C)c(NC(=O)C(C)(C)C)c21 | 310 | 820 | –
11 | CCCCCCCCCCCN1CCc2c(C)c(CC(=O)O)c(C)c(NC(=O)C(C)(C)C)c21 | 960 | 850 | –
12 | CCCCCCCCN1CCc2c(C)c(CC(=O)O)c(C)c(NC(=O)C(C)(C)C)c21 | 2300 | 2000 | –
